From patent US9353107B2 (Aurigene Discovery Technologies Limited, priority 2012, dated 2016)

Target: T1, recombinant human ALK enzyme (ALK WT) (Homo sapiens, UniProt Q9UM73)
T1 construct: purchased Carna Biosciences 08-518
Assay: ALK WT cell free enzymatic assay (TR-FRET)
Format: biochemical
Conditions: 1 μM ATP; for IC50: 10 point dose response; for inhibition at 1 µM: compound at 1 μM; for inhibition at 1 µM / inhibition at 0.1 µM: 30 min pre-incubation; for inhibition at 0.1 µM: compound at 100 nM
Protocol: ALK Wild Type (WT) The ALK WT cell free assay was set up to evaluate the effects of these compounds as inhibitors of ALK enzyme. The enzymatic assay was standardized using recombinant human ALK enzyme (Cat#08-518) from Carna Biosciences using Ultra Light Poly GT (Cat# TRF 0100D) from Perkin Elmer as a substrate. TR-FRET (Time resolved fluorescence resonance energy transfer) detection technology was used for the read out. The final assay conditions were 50 mM HEPES pH 7.1, 10 mM MgCl2, 2 mM MnCl2, 0.01% BSA, 2.5 mM DTT, 0.1 mM Na3 VO4, 40 nM Ultra Light Poly GT, 2.5 ng ALK WT enzyme, 1 μM ATP and 125 nM Lance Eu-W1024 labeled anti phospho tyrosine antibody (Cat# AD0203, Perkin Elmer) in 384 well format. The assay reaction time with the substrate was 30 minutes after which the antibody detection mix is added. The TR-FRET signal (Excitation at 340 nm, Emission at 615 nm and 665 nm) was read with 50 μs delay time on Victor^3 V fluorimeter. The data is calculated using the ratio of reading at 665 nM to 615 nM. The final concentration of DMSO was 1% in the assay. Compounds were screened at 100 nM and 1 μM concentrations with pre-incubation of the enzymes with compound for 30 minutes. Each individual IC50 was determined using 10 point dose response curve generated by GraphPad Prism software Version 4 (San Diego, Calif., USA) using non linear regression curve fit for sigmoidal dose response (variable slope). Percentage inhibition at concentrations of 100 nM and 1.0 μM are given in table along with the IC50 (nM) details for selected examples.

T1 sequence (Q9UM73 1058-1620 limits assumed): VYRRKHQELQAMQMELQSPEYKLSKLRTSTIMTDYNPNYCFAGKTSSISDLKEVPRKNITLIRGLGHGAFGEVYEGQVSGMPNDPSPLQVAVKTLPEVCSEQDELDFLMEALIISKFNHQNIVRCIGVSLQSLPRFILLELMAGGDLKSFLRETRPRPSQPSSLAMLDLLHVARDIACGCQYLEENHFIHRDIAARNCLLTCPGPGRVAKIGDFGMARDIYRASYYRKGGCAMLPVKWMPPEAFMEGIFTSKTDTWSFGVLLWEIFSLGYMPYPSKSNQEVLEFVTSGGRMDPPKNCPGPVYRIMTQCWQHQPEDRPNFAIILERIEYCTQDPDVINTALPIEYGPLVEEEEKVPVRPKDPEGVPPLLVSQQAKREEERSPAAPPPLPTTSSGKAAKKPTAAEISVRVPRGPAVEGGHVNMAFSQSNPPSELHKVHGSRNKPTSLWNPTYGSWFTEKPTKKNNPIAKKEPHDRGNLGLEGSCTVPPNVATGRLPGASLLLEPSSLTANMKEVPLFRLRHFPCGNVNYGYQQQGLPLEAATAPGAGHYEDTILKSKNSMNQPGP

IC50	inhibition at 1 µM	inhibition at 0.1 µM	Compound
–	53%	13%	CS(=O)(=O)Nc1cc(-c2cnc3[nH]cc(-c4cnn(Cc5cccc(F)c5)c4)c3c2)ccc1N1CCOCC1 [Example 17, N-(5-(3-(1-(3-fluorobenzyl)-1H-pyrazol-4-yl)-1H-pyrrolo[2,3-b]pyridin-5-yl)-2-morpholinophenyl)methanesulfonamide]
50 to 250 nM	94%	62%	CNS(=O)(=O)c1cc(-c2cnc3[nH]cc(-c4c(C)nn(Cc5cccc(F)c5)c4C)c3c2)ccc1OC [Example 18, 5-(3-(1-(3-fluorobenzyl)-3,5-dimethyl-1H-pyrazol-4-yl)-1H-pyrrolo[2,3-b]pyridin-5-yl)-2-methoxy-N-methylbenzenesulfonamide]
50 to 250 nM	96%	63%	COc1ccc(-c2cnc3[nH]cc(-c4c(C)nn(Cc5cc(F)cc(F)c5)c4C)c3c2)cc1NS(C)(=O)=O [Example 19]
> 250 nM	75%	17%	CNS(=O)(=O)c1cc(-c2cnc3[nH]cc(-c4c(C)nn(Cc5cc(F)ccc5F)c4C)c3c2)ccc1OC [Example 20, 5-(3-(1-(2,5-difluorobenzyl)-3,5-dimethyl-1H-pyrazol-4-yl)-1H-pyrrolo[2,3-b]pyridin-5-yl)-2-methoxy-N-methylbenzenesulfonamide]
< 50 nM	96%	82%	CNS(=O)(=O)c1cc(-c2cnc3[nH]cc(-c4c(C)nn(Cc5cc(F)cc(F)c5)c4C)c3c2)ccc1OC [Example 21, (3-(1-(3,5-difluorobenzyl)-3,5-dimethyl-1H-pyrazol-4-yl)-1H-pyrrolo[2,3-b]pyridin-5-yl)-2-methoxy-N-methylbenzenesulfonamide]
< 50 nM	87%	62%	COc1ccc(-c2cnc3[nH]cc(-c4c(C)nn(Cc5cc(F)ccc5F)c4C)c3c2)cc1NS(C)(=O)=O [Example 22, N-(5-(3-(1-(2,5-difluorobenzyl)-3,5-dimethyl-1H-pyrazol-4-yl)-1H-pyrrolo[2,3-b]pyridin-5-yl)-2-methoxyphenyl)methanesulfonamide]
50 to 250 nM	99%	73%	Cc1nn(Cc2cccc(F)c2)c(C)c1-c1c[nH]c2ncc(-c3ccc(OCCN(C)C)c(NS(C)(=O)=O)c3)cc12 [Example 23, N-(2-(2-(dimethylamino)ethoxy)-5-(3-(1-(3-fluorobenzyl)-3,5-dimethyl-1H-pyrazol-4-yl)-1H-pyrrolo[2,3-b]pyridin-5-yl)phenyl)methanesulfonamide]
< 50 nM	96%	53%	Cc1nn(Cc2cccc(F)c2)c(C)c1-c1c[nH]c2ncc(-c3ccc(OCCO)c(NS(C)(=O)=O)c3)cc12 [Example 24, N-(5-(3-(1-(3-fluorobenzyl)-3,5-dimethyl-1H-pyrazol-4-yl)-1H-pyrrolo[2,3-b]pyridin-5-yl)-2-(2-hydroxyethoxyl)phenyl)methanesulfonamide]
< 50 nM	93%	86%	Cc1nn(Cc2cccc(F)c2)c(C)c1-c1c[nH]c2ncc(-c3ccc(OCCCO)c(NS(C)(=O)=O)c3)cc12 [Example 25, N-(5-(3-(1-(3-fluorobenzyl)-3,5-dimethyl-1H-pyrazol-4-yl)-1H-pyrrolo[2,3-b]pyridin-5-yl)-2-(3-hydroxypropoxyl)phenyl)methanesulfonamide]

More lines, now with the values behind:

Compound	IC50	inhibition at 1 µM	inhibition at 0.1 µM
CS(=O)(=O)Nc1cccc(-c2cnc3[nH]cc(-c4cnn(Cc5ccccc5F)c4)c3c2)c1 [Example 1, N-(3-(3-(1-(2-fluorobenzyl)-1H-pyrazol-4-yl)-1H-pyrrolo[2,3-b]pyridin-5-yl)phenyl)methanesulfonamide]	50 to 250 nM	92%	–
CS(=O)(=O)Nc1cccc(-c2cnc3[nH]cc(-c4cnn(Cc5cccc(C(F)(F)F)c5)c4)c3c2)c1 [Example 2, N-(3-(3-(1-(3-(trifluoromethyl)benzyl)-1H-pyrazol-4-yl)-1H-pyrrolo[2,3-b]pyridin-5-yl)phenyl) methanesulfonamide]	> 250 nM	33%	–
COc1ccc(Cn2cc(-c3c[nH]c4ncc(-c5cccc(NS(C)(=O)=O)c5)cc34)cn2)cc1 [Example 3, N-(3-(3-(1-(4-methoxybenzyl)-1H-pyrazol-4-yl)-1H-pyrrolo[2,3-b]pyridin-5-yl)phenyl)n methane sulfonamide]	> 250 nM	65%	–
CS(=O)(=O)Nc1cccc(-c2cnc3[nH]cc(-c4cnn(Cc5cc(F)ccc5F)c4)c3c2)c1 [Example 4, N-(3-(3-(1-(2,5-difluorobenzyl)-1H-pyrazol-4-yl)-1H-pyrrolo[2,3-b]pyridin-5-yl)phenyl)methane sulfonamide]	50 to 250 nM	95%	–
CS(=O)(=O)Nc1cccc(-c2cnc3[nH]cc(-c4cnn(Cc5ccc(F)cc5)c4)c3c2)c1 [Example 5, N-(3-(3-(1-(4-fluorobenzyl)-1H-pyrazol-4-yl)-1H-pyrrolo[2,3-b]pyridin-5-yl)phenyl) methanesulfonamide]	50 to 250 nM	69%	–
CS(=O)(=O)Nc1cccc(-c2cnc3[nH]cc(-c4cnn(Cc5cc(F)cc(F)c5)c4)c3c2)c1 [Example 6, N-(3-(3-(1-(3,5-difluorobenzyl)-1H-pyrazol-4-yl)-1H-pyrrolo[2,3-b]pyridin-5-yl)phenyl) methane sulfonamide]	< 50 nM	99%	–
CS(=O)(=O)Nc1cccc(-c2cnc3[nH]cc(-c4cnn(Cc5cccc([N+](=O)[O-])c5)c4)c3c2)c1 [Example 7, N-(3-(3-(1-(3-nitrobenzyl)-1H-pyrazol-4-yl)-1H-pyrrolo[2,3-b]pyridin-5-yl)phenyl)methane sulfonamide]	–	53%	20%
CS(=O)(=O)Nc1cccc(-c2cnc3[nH]cc(-c4cnn(Cc5cccc(N)c5)c4)c3c2)c1 [Example 8, N-(3-(3-(1-(3-aminobenzyl)-1H-pyrazol-4-yl)-1H-pyrrolo[2,3-b]pyridin-5-yl)phenyl) methane sulfonamide]	< 50 nM	97%	81%
CS(=O)(=O)Nc1cccc(-c2cnc3[nH]cc(-c4cnn(Cc5cccc(F)c5)c4)c3c2)c1 [Example 9, N-(3-(3-(1-(3-fluorobenzyl)-1H-pyrazol-4-yl)-1H-pyrrolo[2,3-b]pyridin-5-yl)phenyl)methanesulfonamide]	< 50 nM	98%	–
CS(=O)(=O)Nc1cccc(-c2cnc3[nH]cc(-c4cnn(Cc5cccc(Cl)c5)c4)c3c2)c1 [Example 10, N-(3-(3-(1-(3-chlorobenzyl)-1H-pyrazol-4-yl)-1H-pyrrolo[2,3-b]pyridin-5-yl)phenyl)methane sulfonamide]	50 to 250 nM	81%	–
CS(=O)(=O)Nc1cccc(-c2cnc3[nH]cc(-c4cnn(Cc5cccc(C#N)c5)c4)c3c2)c1 [Example 11, N-(3-(3-(1-(3-cyanobenzyl)-1H-pyrazol-4-yl)-1H-pyrrolo[2,3-b]pyridin-5-yl)phenyl)methane sulfonamide]	< 50 nM	90%	64%
CS(=O)(=O)Nc1cccc(-c2cnc3[nH]cc(-c4cnn(Cc5ccccc5)c4)c3c2)c1 [Example 12, N-(3-(3-(1-benzyl-1H-pyrazol-4-yl)-1H-pyrrolo[2,3-b]pyridin-5-yl)phenyl) methanesulfonamide]	> 250 nM	87%	–
COc1ccc(-c2cnc3[nH]cc(-c4cnn(Cc5cccc(F)c5)c4)c3c2)cc1NS(C)(=O)=O [Example 13, N-(5-(3-(1-(3-fluorobenzyl)-1H-pyrazol-4-yl)-1H-pyrrolo[2,3-b]pyridin-5-yl)-2-methoxyphenyl) methane sulfonamide]	< 50 nM	96%	–
COc1ccc(-c2cnc3[nH]cc(-c4c(C)nn(Cc5cccc(F)c5)c4C)c3c2)cc1NS(C)(=O)=O [Example 14, N-(5-(3-(1-(3-fluorobenzyl)-3,5-dimethyl-1H-pyrazol-4-yl)-1H-pyrrolo[2,3-b]pyridin-5-yl)-2-methoxyphenyl)methanesulfonamide]	< 50 nM	95%	–
CCS(=O)(=O)Nc1cc(-c2cnc3[nH]cc(-c4c(C)nn(Cc5cccc(F)c5)c4C)c3c2)ccc1OC [Example 15, N-(5-(3-(1-(3-fluorobenzyl)-3,5-dimethyl-1H-pyrazol-4-yl)-1H-pyrrolo[2,3-b]pyridin-5-yl)-2-methoxyphenyl)ethanesulfonamide]	–	75%	33%
COc1ccc(-c2cnc3[nH]cc(-c4cnn(Cc5cccc(F)c5)c4)c3c2)cc1NS(=O)(=O)C1CC1 [Example 16, N-(5-(3-(1-(3-fluorobenzyl)-1H-pyrazol-4-yl)-1H-pyrrolo[2,3-b]pyridin-5-yl)-2-methoxyphenyl)cyclopropanesulfonamide]	–	66%	33%
